The results in this text go back to a melting point compilation (Tetko et al.; mined from patent text by program, amines drawn as free bases though some values may be those of a salt).

SMILES strings stand for the structures.

`CCOCc1cnc2c(N)cccc2c1Cl`: the melting point was in the range of 90 to 93 °C.

Regarding `CC#CCC(C)(C)C(=O)/C=C/[C@@H]1[C@H]2CC(=O)O[C@H]2C[C@H]1OC(=O)c1ccccc1`, the melting point was in the range of 73 to 74 °C.

As for `CC(C)(C)OC(=O)NC1Cc2ccccc2C1Oc1ccccc1Cc1ccccc1` (stereo unspecified), the melting point lay in the range of 113 to 114 °C.

Regarding `CC1(C)CC(O)CC(C)(C)N1N=Nc1ccc([N+](=O)[O-])cc1`, the melting point was 108 to 110 °C.

On to `O=c1[nH]c2ccccc2n1CCNCc1ccc(CN2CCCCC2)o1`, for which the melting point lay in the range of 83 to 85 °C.

Regarding `O=C(O)c1ccc(NCc2sc(Cl)cc2Cl)cc1`, the melting point is 169 to 170 °C.

As for `CCc1cnc(Nc2ccccn2)s1`, the melting point was found to be 113 °C.

On to `O=C(Nc1cccc(Cl)c1)c1nc(-c2ccccc2)c2ccccc2c1O`, for which the melting point is 195 to 197 °C.

With `Fc1cc(OCCBr)ccc1OCc1ccccc1`, the melting point fell in the range of 63 to 65 °C.

Take `COc1ccc(Cl)c2c1c1c(n2Cc2ccccc2)CCCC1C(N)=O` (stereo unspecified): the melting point fell in the range of 205 to 208 °C.

`O=C(c1ccc(-n2ccc(C3CC3)n2)cc1C(F)(F)F)N1Cc2cccn2Cc2ccccc21` yielded a melting point of 163 to 164 °C.

Compound `COC(=O)c1cc(O)cc(C(=O)CS(C)=O)c1` (stereo unspecified) had a melting point of 144 to 150 °C.

Compound `CCN(C(=O)C1CC1)c1cccc(-c2ccnc3c(C(=O)c4ccco4)cnn23)c1` had a melting point of 182 to 184 °C.

As for `CCOC(=O)c1c(C(F)(F)F)nc(C(F)(F)F)c(C)c1O`, the melting point fell in the range of 23 to 24.5 °C.

On to `O=C(CCCCl)c1cc2c3c(c1)CCN3C(=O)CC2`, for which the melting point lay in the range of 123 to 124 °C.

In turn, `CC(C)c1nsc(N=C(F)N(C)C)c1C#N` displayed a melting point of 100 to 102 °C.

For `CCCCCCCCCCCCCCCCCCN(CCCCCCCCCCCCCCCCCC)CCCNC=O`, the melting point is 42 to 46 °C.

Regarding `CCOP(=O)(OCC)N1CCN(c2cc3c(cc2F)c(=O)c(C(=O)O)cn3C2CC2)CC1`, the melting point fell in the range of 192 to 193 °C.

`Cc1c(NC(=O)c2ccc(OCC3CCOC3)cc2)ccc2cc(CNCC3CCOCC3)cnc12` (stereo unspecified) showed a melting point of 122 to 123 °C.

`CCCc1nc2c(N)nc(C)c(C)c2n1CCCCN1CCCS1(=O)=O` registered a melting point of 155 to 161 °C.

For the compound `O=C(Nc1ccc(Br)cn1)C1=C(O)c2ccccc2N(c2ccccc2)C1`, the melting point lay within 153 to 154 °C.

Regarding `CSC1NC(=O)N(C)C(=O)N1C` (stereo unspecified), the melting point was 137 to 139 °C.

Take `O=C(O)c1ccc(F)cc1NC(=O)c1ccccc1C(=O)O`: the melting point fell in the range of 187 to 188 °C.

The compound `CCCCc1oc2ccccc2c1-c1ncc(-c2ccc3c(Br)c(OCC#N)ccc3c2)o1` gave a melting point of 144 to 146 °C.

`CNC(=O)C1N=C(c2ccccc2)c2cc(Cl)ccc2NC1=O` (stereo unspecified) had a melting point of 294 °C.

`CS(=O)(=O)c1nnc(-c2ccc3occ(-c4ccc(OC(F)(F)F)cc4)c3c2)o1` came in with a melting point of 196 to 197 °C.

`COc1ccc(C(=O)CCCCc2ccccc2)cc1OC`: the melting point fell in the range of 56 to 58 °C.

As to `CCCn1cc(C(=O)OCC)c(=O)c2ccoc21`, the melting point stood at 130 °C.

`CCC1NCCc2ccc(NC(=N)c3cccs3)cc21` (stereo unspecified): the melting point is 142 to 144 °C.

As for `O=S(=O)(c1ccc(Cl)cc1)C(CCSCCO)c1cc(F)ccc1F` (stereo unspecified), the melting point was in the range of 108 to 110 °C.

In turn, `CC(=O)OC1CSC(Oc2cccnc2C(=O)N2CCCCC2)C(OC(C)=O)C1OC(C)=O` (stereo unspecified) gave a melting point of 89 to 92 °C.

`CC(Oc1cccc(Oc2c(Cl)cc(C(F)(F)F)cc2Cl)c1)C(=O)O` (stereo unspecified): the melting point stood at 120 °C.

Compound `CCNC(=S)NC1=Nc2ccc(OC(F)(F)F)cc2SC1` returned a melting point of 199 to 201 °C.

As for `ClC1=Nc2ccccc2Oc2cscc21`, the melting point was in the range of 215 to 217 °C.

The compound `COc1nsc(SCOCC#CI)c1C#N` had a melting point of 124 to 125 °C.

In turn, `COc1cc(F)c(F)cc1OCCN` gave a melting point of 44 to 46 °C.

Turning to `Cc1ccc(-c2ccc(Cl)cc2)cc1C#CC(C)(C)OCC(=O)O`, the melting point came to 125 °C.

In turn, `CCc1ccc(OCCc2c[nH]cn2)cc1` registered a melting point of 178 °C.

Compound `CCCS(=O)(=O)c1ccc(NS(=O)(=O)c2cccs2)c2[nH]c(C(=O)NCCSC(c3ccccc3)(c3ccccc3)c3ccccc3)cc12` showed a melting point of 200 to 201 °C.

`CC(C)On1c(C(C)C)nc2c(N)nc3ccccc3c21` registered a melting point of 177 to 179 °C.

The compound `COCCOc1ccc([N+](=O)[O-])cc1S(=O)(=O)Cl` displayed a melting point of 74 to 74.5 °C.

In turn, `COC(=O)c1cc(O)nn1Cc1ccc(Cl)cc1Cl` registered a melting point of 222 to 223 °C.

`CCOCCCOc1ccc(-c2ccc3c(c2)C=C(C(=O)Nc2ccc(CN(C)C4CCOCC4)cc2)CCS3(=O)=O)cc1` registered a melting point of 214 to 215 °C.

`CCOC(=O)Cc1ccc(-c2nc(COc3ccc(COc4nn(-c5ccccc5)cc4C=O)cc3OC)c(C)o2)cc1` gave a melting point of 157 to 158 °C.

`Oc1ccc2c(-c3ccccn3)noc2c1Cl` gave a melting point of 209 to 211 °C.

For the compound `COC(=O)CCCCCCCCCCCCCCCCCCCN1C(=O)c2ccccc2C1=O`, the melting point was 86.5 to 87.5 °C.

`COc1cc(C)nc(-c2cnnn2NS(=O)(=O)c2ccccc2Cl)n1` gave a melting point of 139 °C.

`CC(C)(C)c1cc(-c2nnc(N)s2)cc(C(C)(C)C)c1O` came in with a melting point of 261 °C.

`NS(=O)(=O)c1cc(C(=O)O)cc([N+](=O)[O-])c1Sc1ccccc1`: the melting point lay in the range of 245 to 247 °C.

`N=C(NCc1cccnc1)N[N+](=O)[O-]` registered a melting point of 185 to 190 °C.

As to `CC12CCC(=O)C=C1CCC1C2CCC2(C)C1CCC2(O)C(=O)CCl` (stereo unspecified), the melting point was 239 °C.

In turn, `Cc1cc(Nc2cncc(-c3ccccc3)n2)n[nH]1` came in with a melting point of 232 to 234 °C.

As for `CNC(=NC#N)Nc1ccc(C2=NNC(=O)CC2C)cc1` (stereo unspecified), the melting point worked out at 235 °C.

`CCCCn1c(=O)c2c(NC)n(C)nc2n(Cc2ccccc2)c1=O` displayed a melting point of 146 to 148 °C.

In the case of `N#Cc1cccc(NCC(=O)Nc2c(Cl)ccc3nc(N4CC[C@@H](O)C4)ccc23)c1`, the melting point was in the range of 254 to 256 °C.

`COc1cc(C2CCN(CC(N)=O)CC2)ccc1Nc1ncc2ccc(-c3ccccc3OC)n2n1` yielded a melting point of 88 to 95 °C.

The compound `N#Cc1ccc(-c2cccc(OS(N)(=O)=O)c2)cc1Cn1cncn1` showed a melting point of 137 to 138 °C.

In turn, `CCCCCc1c(C(C)C)nc(C(C)C)c(CN(C)C)c1-c1ccc(F)cc1` yielded a melting point of 69 to 71 °C.

With `NC(=O)N(O)CC=Cc1ccccc1Sc1ccc(Cl)cc1`, the melting point is 126 to 128 °C.

Compound `Cc1cc(-c2ccc(Cl)c(Cl)c2)n(-c2ccc(S(N)(=O)=O)cc2)c1` registered a melting point of 136 to 138 °C.

In turn, `COCCOC(=O)C1=C(O)c2ccccc2S(=O)(=O)N1` returned a melting point of 120 to 122 °C.

In turn, `COC(=O)c1c(O)c(Br)c(Br)n1C` displayed a melting point of 128 to 130 °C.

As for `COc1ccc(Cc2nccc3ccccc23)cc1OC`, the melting point was 146 to 147 °C.

In the case of `Cn1cc(C(=O)NCc2ccc(Cl)cc2)c(=O)c2ccoc21`, the melting point fell in the range of 197 to 205 °C.

Take `O=c1[nH]cnc2cscc12`: the melting point lay in the range of 275 to 278 °C.

Compound `CC(C)n1nc(-c2c(-c3ccccc3)nn3ccc(N4CCN(S(C)(=O)=O)CC4)cc23)ccc1=O` returned a melting point of 219 to 220 °C.

The compound `Cn1c(=O)cc(-c2ccccc2)c2cc(C(COCc3ccc(Cl)cc3)(c3ccc(Cl)cc3)n3ccnc3)ccc21` (stereo unspecified) showed a melting point of 177 °C.

In the case of `Brc1ccccc1Sc1nc2ccccc2n2cncc12`, the melting point fell in the range of 191 to 192 °C.

In the case of `CCCCC[N+]([O-])=[N+]([O-])CC`, the melting point was 184 to 185 °C.

`CCN1CCN(Cc2nc3sc(Br)cc3c(=O)n2-c2ccccc2Cl)CC1` displayed a melting point of 155 to 158 °C.

Turning to `O=C1OCCC12Sc1ccc(S(=O)(=O)N3CCOCC3)cc1C2=O` (stereo unspecified), the melting point lay within 220 to 222 °C.

Compound `CCOC(=O)CC(=O)c1ccc(Br)c(OC)c1F` registered a melting point of 52 to 53 °C.

Compound `O=c1c2c(Cc3cccc(OC(F)(F)F)c3)n[nH]c2c2cccnc2n1-c1cccc(C(F)(F)F)c1` had a melting point of 129 to 132 °C.

Compound `CC(=O)NC1CC(C)(C)N(OC2CCCCC2)C(C)(C)C1` came in with a melting point of 140 to 144 °C.

`NC(=O)c1cc(OCCNCC(O)c2ccccc2)ccc1O` (stereo unspecified) returned a melting point of 166 to 172 °C.

For `COc1cccc(CC(=O)O)c1OCCCc1cn(-c2ccc(C(F)(F)F)cc2)nc1C(C)C`, the melting point was in the range of 114 to 115 °C.

Compound `CCOc1cc2c(cc1O)C(=NO)CC1C2CCC2(C)C(OC(C)=O)CCC12` (stereo unspecified) came in with a melting point of 226 to 227 °C.

In the case of `FC(F)(F)c1cc(Cl)c(-n2ncc(-c3nc(Br)c(Br)[nH]3)n2)c(Cl)c1`, the melting point lay within 234 to 235 °C.

The compound `Cn1cc(C(=O)NCc2ccc(Cl)cc2)c(=O)c2cc(COCC(=O)c3ccccc3)sc21` yielded a melting point of 209 °C.

Take `Clc1cc2c(nn1)CCCCCCCCCC2`: the melting point lay within 126 to 128 °C.

With `CC(O)c1cc2c(s1)S(=O)(=O)CCc1cc(=O)n(-c3ccc(Cl)cc3)nc1-2` (stereo unspecified), the melting point lay within 233 to 235 °C.

Turning to `CN(C(=O)CBr)c1ccc(Cl)cc1Cc1ccccc1`, the melting point turned out to be 78 °C.

In turn, `CCOC(=O)/C=C/c1cc(-c2ccc(C(F)(F)F)cc2)oc1CC` showed a melting point of 82 to 83 °C.

`CCOC(=O)CNC(=O)COc1ccc(CCl)cc1` came in with a melting point of 88.5 to 90.5 °C.

Turning to `CCCn1c(=O)c2c(NC)n[nH]c2n(Cc2ccccc2)c1=O`, the melting point fell in the range of 307 to 310 °C.

In the case of `COc1nc(NC(=O)NS(=O)(=O)c2ccccc2OC(F)F)nc(OCC(F)(F)F)n1`, the melting point was in the range of 155 to 157 °C.

Compound `CN1C(=O)c2ccccc2N(N=O)c2ccccc21` had a melting point of 95 to 98 °C.

In the case of `CCOC(=O)[C@H](C[C@H](Cc1ccc(OC)c(OCCCOC)c1)C(C)C)NC(=O)OC(C)(C)C`, the melting point is 59 to 60 °C.

Take `CC(=N)Nc1cccc(C(=N)N)c1`: the melting point lay in the range of 263 to 265 °C.

The compound `CCOC(=O)NN=COC(N)CC` (stereo unspecified) yielded a melting point of 100 °C.

`Cc1ccc(S(=O)(=O)ON=C2C3=C(C=C4OCCC42)CCCO3)cc1` (stereo unspecified) gave a melting point of 118 °C.
